Assays:
FLAG-Trx2 = molecular target: T1, FLAG-Trx2 (Saccharomyces cerevisiae, UniProt P22803); assay: cross-linking in yeast cells, anti-FLAG immunoblot; assay type: cell-based; conditions: covalent; 1 h
T1 sequence (P22803 2-104): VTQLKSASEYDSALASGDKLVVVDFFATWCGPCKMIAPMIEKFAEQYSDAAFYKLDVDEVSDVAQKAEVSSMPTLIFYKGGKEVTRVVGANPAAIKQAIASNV

FLAG-Tsa1 = molecular target: T2, FLAG-Tsa1 (Saccharomyces cerevisiae, UniProt P34760); assay: cross-linking in yeast cells, anti-FLAG immunoblot; assay type: cell-based; conditions: covalent; 1 h
T2 sequence (P34760 2-196): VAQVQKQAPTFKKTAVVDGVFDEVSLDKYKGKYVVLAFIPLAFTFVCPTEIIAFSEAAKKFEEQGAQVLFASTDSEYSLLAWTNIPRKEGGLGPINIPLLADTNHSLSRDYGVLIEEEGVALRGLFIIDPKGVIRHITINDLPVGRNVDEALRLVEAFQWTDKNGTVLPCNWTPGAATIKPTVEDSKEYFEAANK

SMILES	cross-linking in yeast cells, anti-FLAG immunoblot (FLAG-Trx2)	cross-linking in yeast cells, anti-FLAG immunoblot (FLAG-Tsa1)
C1OC1C1CO1 (stereo not shown) [1,2,3,4-diepoxybutane]	each of these bifunctional electrophiles promotes cross-linking of Trx2 and Tsa1 in yeast	each of these bifunctional electrophiles promotes cross-linking of Trx2 and Tsa1 in yeast
CCOC(=O)C#CC(=O)OCC [diethyl acetylenedicarboxylate]	each of these bifunctional electrophiles promotes cross-linking of Trx2 and Tsa1 in yeast	each of these bifunctional electrophiles promotes cross-linking of Trx2 and Tsa1 in yeast

Source: article PMC3637938 (Chemical research in toxicology, 2013)
